Results from US6683103B2, “Sulfonamides for treatment of endothelin-mediated disorders” (Texas Biotechnology Corporation, priority 1997, dated 2004).
Like-named read-outs stand apart in the source and are kept apart here.

Columns and labels:
[1] = target: T1, human ETB receptor (Homo sapiens, UniProt P24530); assay: Binding Test #2: inhibition of 125I-ET-1 binding to ETB receptors (transfected COS7 cell membranes)
T1 construct: expressed in transfected cells; host or cells: COS7 cells
T1 sequence (P24530 27-442): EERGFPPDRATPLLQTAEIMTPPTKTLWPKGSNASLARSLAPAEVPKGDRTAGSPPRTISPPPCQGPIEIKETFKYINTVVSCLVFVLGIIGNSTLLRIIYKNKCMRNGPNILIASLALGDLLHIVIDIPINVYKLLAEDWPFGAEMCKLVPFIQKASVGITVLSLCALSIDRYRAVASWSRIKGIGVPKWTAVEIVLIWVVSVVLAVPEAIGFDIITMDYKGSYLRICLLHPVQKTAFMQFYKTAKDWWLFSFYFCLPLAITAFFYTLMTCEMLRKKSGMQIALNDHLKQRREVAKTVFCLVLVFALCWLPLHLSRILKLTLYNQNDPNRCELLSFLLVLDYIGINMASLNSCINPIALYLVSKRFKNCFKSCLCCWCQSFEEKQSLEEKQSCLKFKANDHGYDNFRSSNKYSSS
Source text: (§1) Compounds that are potential endothelin antagonists are identified by testing their ability to compete with ^125I-labeled ET-1 for binding to human ETA receptors or ETB receptors present on isolated cell membranes. The effectiveness of the test compound as an antagonist or agonist of the biological tissue response of endothelin can also be assessed by measuring the effect on endothelin induced contraction of isolated rat thoracic aortic rings. The ability of the compounds to act as antagonists or agonists for ETB receptors can be assess by testing the ability of the compounds are to inhibit endothelin-1 induced prostacyclin release from cultured bovine aortic endothelial cells.
B. Endothelin Binding Inhibition—Binding Test #2: Inhibition of Binding to ETB Receptors
COS7 cells were transfected with DNA encoding the ETB receptor, The resulting cells, which express the human ETB receptor, were grown to confluence in T-150 flasks. Membrane was prepared as described above. The binding assay was performed as described above using the membrane preparation diluted with binding buffer to a concentration of 1 μg/50 μl.
Briefly, the COS7 cells, described above, that had been transfected with DNA encoding the ETB receptor and express the human ETB receptor on their surfaces were grown to confluence in T-1 75 flasks. Cells from multiple flasks were collected by scraping, pooled and centrifuged for 10 min at 190×g. The cells were resuspended in phosphate buffered saline (PBS) containing 10 mM EDTA using a Tenbroeck homogenizer. The suspension was centrifuged at 4° C. 57,800 X g for 15 min, the pellet was resuspended in 5 ml of buffer A (5mM HEPES buffer, pH 7.4 containing aprotinin (100 KIU/ml)) and then frozen and thawed once. Five ml of Buffer B (5 mM HEPES Buffer, pH 7.4 containing 10 mM MnCl2 and 0.001% deoxyribonuclease Type 1) was added, the suspension mixed by inversion and then incubated at 37° C. for 30 minutes. The mixture was centrifuged at 57,800×g as described above, the pellet washed twice with buffer A and then resuspended in buffer C (30 mM HEPES buffer, pH 7.4 containing aprotinin (100 KIU/ml) to give a final protein concentration of 2 mg/ml.
The binding assay was performed as described above using the membrane preparation diluted to give 1 μg/50 μl of binding buffer.

[2] = target: T2, human ETA receptors (Homo sapiens, UniProt P25101); assay: Binding Test #1: inhibition of 125I-ET-1 binding to ETA receptors (TE 671 cell membranes); conditions: read-out: ETA
T2 construct: endogenous in cells; host or cells: TE 671 cells (ATCC HTB 139)
T2 sequence (P25101 21-427): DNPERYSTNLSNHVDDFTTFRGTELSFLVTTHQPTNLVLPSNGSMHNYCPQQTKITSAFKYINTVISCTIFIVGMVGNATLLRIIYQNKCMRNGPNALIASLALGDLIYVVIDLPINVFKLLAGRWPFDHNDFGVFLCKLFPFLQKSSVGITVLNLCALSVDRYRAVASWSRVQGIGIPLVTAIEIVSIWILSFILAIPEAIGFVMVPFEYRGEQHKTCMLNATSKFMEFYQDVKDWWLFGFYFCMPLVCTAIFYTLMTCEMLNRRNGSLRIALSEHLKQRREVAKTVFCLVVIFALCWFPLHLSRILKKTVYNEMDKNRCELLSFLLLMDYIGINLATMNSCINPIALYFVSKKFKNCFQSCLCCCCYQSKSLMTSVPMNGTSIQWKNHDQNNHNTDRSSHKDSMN
Source text: as §1
A. Endothelin Binding Inhibition—Binding Test #1: Inhibition of Binding to ETA Receptors
TE 671 cells (ATCC Accession No. HTB 139) express ETA receptors. These cells were grown to confluence in T-175 flasks. Cells from multiple flasks were collected by scraping, pooled and centrifuged for 10 min at 190×g. The cells were resuspended in phosphate buffered saline (PBS) containing 10 mM EDTA using a Tenbroeck homogenizer. The suspension was centrifuged at 4° C. at 57,800×g for 15 min, the pellet was resuspended in 5 ml of buffer A (5 mM HEPES buffer, pH 7.4 containing aprotinin (100 KIU/ml)) and then frozen and thawed once. 5 ml of Buffer B (5 mM HEPES Buffer, pH 7.4 containing 10 mM MnCl2 and 0.001% deoxyribonuclease Type 1) was added, the suspension mixed by inversion and then incubated at 37° C. for 30 minutes. The mixture was centrifuged at 57,800×g as described above, the pellet washed twice with buffer A and then resuspended in buffer C (30 mM HEPES buffer, pH 7.4 containing aprotinin (100 KIU/ml) to give a final protein concentration of 2 mg/ml and stored at −70° C. until use.
The membrane suspension was diluted with binding buffer (30 mM HEPES buffer, pH 7.4 containing 150 mM NaCl, 5mM MgCl2, 0.5% Bacitracin) to a concentration of 8 μg/50 μl. ^125I-endothelin-1 (3,000 cpm, […]) was added to 50 μL of either: (A) endothelin-1 (for non specific binding) to give a final concentration 80 nM); (B) binding buffer (for total binding); or (C) a test compound (final concentration 1 nM to 100 μM). The membrane suspension (50 μL), containing up to 8 μg of membrane protein, was added to each of (A), (B), or (C). Mixtures were shaken, and incubated at 4° C. for 16-18 hours, and then centrifuged at […] for 25 min at 2,500×g. Alternatively, the incubation was conducted at 24° C. […] This, must be kept in mind when comparing IC50 concentrations among compounds provided herein.
The supernatant, containing unbound radioactivity, was decanted and the pellet counted on a Genesys multiwell gamma counter. The degree of inhibition of binding (D) was calculated according to the following equation: [formula]
Each test was generally performed in triplicate.

[3] = Table 1, incubation at 4° C., read-out: ETB
[4] = Table 1, † incubation at 24° C., read-out: ETB
[5] = Table 1, † incubation at 24° C.
[6] = Table 2, incubation at 4° C., read-out: ETB

Row | Compound | IC50 [1, 3] [nM] | IC50 ([2]; Table 1, incubation at 4° C.) [nM] | IC50 [1, 4] [nM] | IC50 [2, 5] [nM] | other results
1 | Cc1noc(NS(=O)(=O)c2ccsc2C(=O)NCc2ccccc2)c1Br [N-(4-Bromo-3-methyl-5-isoxazolyl)-2-(N-benzylaminocarbonyl)thiophene-3-sulfonamide] | 12700 | 13 |  |  | 
2 | Cc1noc(NS(=O)(=O)c2ccsc2C(=O)Nc2ccc(C(C)C)cc2)c1Br [N-(4-bromo-3-methyl-5-isoxazolyl)-2-[N-(4-isopropylphenyl)aminocarbonyl]thiophene-3-sulfonamide] | 1130 | < 10 |  |  | 
3 | N-2-[3,4-(methylenedioxy)phenylacetyl]thiophene-3-sulfonamide |  |  | 32500 | 1800 | 
4 | Cc1noc(NS(=O)(=O)c2ccc(-c3ccccn3)s2)c1Br [N-(4-Bromo-3-methyl-5-isoxazolyl)-5-(2-pyridyl)thiophene-2-sulfonamide] | 2700 | 3840 |  |  | 
5 | Cc1noc(NS(=O)(=O)c2ccsc2C(=O)O)c1Br [N-(4-Bromo-3-methyl-5-isoxazolyl)-2-(carboxyl)thiophene-3-sulfonamide] | ~67000 | ~600 |  |  | 
6 | N-(4-bromo-3-methyl-5-isoxazolyl)-4′-trifluorophenyl-4-biphenylsulfonamide |  |  |  |  | IC50 [1, 6]: 83 ± 20 nM; IC50 ([1]; Table 2, † incubation at 24° C., read-out: ETB): 710 ± 430 nM; IC50 ([2]; Table 2, incubation at 4° C.): 5400 ± 300 nM; IC50 ([2]; Table 2, † incubation at 24° C.): 25900 ± 13700 nM
7 | Cc1noc(NS(=O)(=O)c2ccsc2C(=O)O)c1C [N-(3,4-dimethyl-5-isoxazolyl)-2-(carboxyl)thiophene-3-sulfonamide] | > 100000 | 2640 |  |  | 
8 | Cc1noc(NS(=O)(=O)c2ccc(-c3ccccc3)s2)c1C [N-(3,4-dimethyl-5-isoxazolyl-5-phenylthiophen-2-sulfonamide] | 1290 | 2550 |  |  | 
9 | Cc1noc(NS(=O)(=O)c2c(C(=O)O)n(C)c3ccccc23)c1Br [N-(4-bromo-3-methyl-5-isoxazolyl)-2-carboxyl-1-methylidole-3-sulfonamide] |  |  | 104000 | 590 | 
10 | Cc1cc(NS(=O)(=O)c2ccc(-c3ccon3)s2)on1 [5-(3-isoxazolyl)-N-(3-methyl-5-isoxazolyl)-2-thiophenesulfonamide] | 6700 | 5600 |  |  | 
11 | Cc1noc(NS(=O)(=O)c2ccsc2C(=O)NC(=O)c2ccc3c(c2)OCO3)c1Br [N-(4-bromo-3-methyl-5-isoxazolyl)-2-[(3,4-methylenedioxy)benzoyl]aminocarbonyl]thiophene-3-sulfonamide] |  |  | 37000 | 89 | 
12 | Cc1noc(NS(=O)(=O)c2ccsc2CCc2ccc3c(c2)OCO3)c1Br [N-(4-bromo-3-methyl-5-isoxazolyl)-2-[(3,4-methylenedioxy)phenethyl]thiophene-3-sulfonamide] |  |  | 9200 | 210 | 
13 | Cc1noc(NS(=O)(=O)c2cccc(-c3ccccc3)c2)c1Br [N-(4-bromo-3-methyl-5-isoxazolyl)-3-biphenylsulfonamide] |  |  |  |  | IC50 [1, 6]: 760 nM; IC50 ([1]; read-out: IC50 for ETB receptors): ~760 nM; IC50 ([2]; Table 2, incubation at 4° C.): ~30 nM
14 | Cc1ccc(C=CCc2sccc2S(=O)(=O)Nc2onc(C)c2Br)c(C)c1 [N-(4-bromo-3-methyl-5-isoxazolyl)-2-(2,4-dimethylcinnamyl)thiophene-3-sulfonamide] |  |  | 2970 | 166 | 

Further lines, with some results ahead:

Row | IC50 [1, 3] [nM] | IC50 ([2]; Table 1, incubation at 4° C.) [nM] | IC50 [1, 4] [nM] | IC50 [2, 5] [nM] | Compound | other results
15 | 85.5 | 3230 |  |  | CCc1ccc(-c2ccc(S(=O)(=O)Nc3onc(C)c3Br)s2)cc1 [N-(4-bromo-3-methyl-5-isoxazolyl)-5-(4-ethylphenyl)thiophene-2-sulfonamide] | 
16 | 3460 | 103 |  |  | Cc1noc(NS(=O)(=O)c2sccc2Oc2ccccc2)c1Br [N-(4-bromo-3-methyl-5-isoxazolyl)-3-phenoxythiophene-2-sulfonamide] | 
17 |  |  | 34000 | 440 | Cc1noc(NS(=O)(=O)c2ccsc2C(=O)OC2CCCCC2)c1Cl [N-(4-chloro-3-methyl-5-isoxozolyl-2-(cyclohexyloxycarbonyl)thiophene-3-sulfonamide] | 
18 |  |  | 8270 | 0.626 | Cc1cc(C)c(NC(=O)c2sccc2S(=O)(=O)Nc2onc(C)c2Cl)c(C)c1 [N-(4-chloro-3-methyl-5-isoxazolyl)-2-(2,4,6-trimethylphenylaminocarbonyl)thiophene-3-sulfonamide] | 
19 | 24000 | 1120 | 35500 | 7240 | Cc1noc(NS(=O)(=O)c2ccc(C#CC(C)(C)C)s2)c1Br [N-(4-bromo-3-methyl-5-isoxazolyl)-5-(3,3-dimethylbutyn-1-yl)thiophene-2-sulfonamide] | 
20 | 417 | 3530 | 2400 | 36600 | Cc1noc(NS(=O)(=O)c2ccc(-c3ccccc3)s2)c1Br [N-(4-bromo-3-methyl-5-isoxazolyl)-5-phenylthiophene-2-sulfonamide] | 
21 |  |  | 2390 | ~2000 | COc1ccc2c(S(=O)(=O)Nc3onc(C)c3Cl)c(Cc3ccc4c(c3)OCO4)sc2c1 [N-(4-chloro-3-methyl-5-isoxazolyl)-6-methoxy-2-[3,4-(methylenedioxy)benzyl]benzo[b]thiophene-3-sulfonamide] | 
22 |  |  | 6200 | 230 | Cc1noc(NS(=O)(=O)c2ccsc2C(=O)OCCc2ccc3c(c2)OCO3)c1Cl [N-(4-chloro-3-methyl-5-isoxazolyl)-2-[2-(3,4-methylenedioxyphenyl)ethoxycarbonyl-3-sulfonamide] | 
